Assay results taken from patent US20070128727A1, “Methods for differentiation of embryonic stem cells” (priority 2005, published 2007).

Experiments:
Type in all cases: cell-based, mouse
MESC = assay: ATRA effects on growth of MESC (Alamar blue cell proliferation); conditions: ATRA 10^-6 M for three days, vs 0.1% DMSO vehicle, 500 cells/well
Experimental: (§1) Mouse embryonic stem (ES) cells were used as the source of embryoid bodies (EBs). E14Tg2A cells were trypsinized and made into suspension in Glasgow Minimum essential medium containing 10% fetal bovine serum (growth medium). Cells were counted under a microscope using a haemocytometer, and were diluted to a concentration on 10^5 cells/mi. During cell passages, 1000 U/ml of leukemia inhibitory factor (LIF) was added to prevent differentiation.
FIG. 1. ATRA effects on growth of MESC. Cells were plated at 500/well in a 96-well culture plate. Starting on day 1, they were treated with ATRA (10^−6 M) for three days with replacement of fresh media each day. Control samples were treated with 0.1% DMSO (vehicle). At each indicated day, Alamar blue (10 μl/0.1 ml), an indicator for cell proliferation detection, was added to each well and the fluorescence generated was read after 4 hours.

[1] = system: embryoid bodies from E14Tg2A embryonic stem cells; assay: Differentiation of adipocytes from embryoid bodies (oil-red-O staining, morphology); conditions: ATRA treated vs vehicle treated cultures, same differentiation process
Experimental: as §1
To make EBs, cell suspensions after trypsinization were made into hanging droplets (20 μl) onto the cover of a bacteriological petri dish. The bottom of the dish was filled with PBS.
20 μl droplets of cells in suspension were pipetted onto the cover of a 100 mm bacteriological petri dish. […]
Two days afterwards, the droplets containing EBs were collected by adding medium to the cover and equally distributed onto 2 gelatinized (precoated with 0.1% gelatin) 100 mm petri dishes. […] After treating the cells for 8 days, cells were removed from the dish, counted with a hemocytometer and plated onto gelatinized 6-well culture plates at 10^4/cm^2. […]
ATRA treated cultures and vehicle treated control cultures underwent the same differentiation process as described in the Methods. […] The relative mass of specific RNA was calculated by the comparative cycle of threshold detection method according to the manufacturer's instruction. […]

Differentiated MESC = assay: Gene expression profile by Taqman real time PCR in differentiated MESC
Experimental: Two days afterwards, the droplets containing EBs were collected by adding medium to the cover and equally distributed onto 2 gelatinized (precoated with 0.1% gelatin) 100 mm petri dishes. The attached EBs were treated with 10^−6 M ATRA (all-trans retinoic acid) for 3 days to initiate differentiation. Medium was then changed into growth medium with 10^−7 M insulin and 2×10^−9 M of triiodothyronine (T3) (induction medium) to continue adipocyte differentiation. Medium was changed every two days. At day 10, further stimulation of induction was made by the addition of an induction cocktail [0.5 mM isobutylmethylxanthine (IBMX), 0.1 μM dexamethasone (DEX) and 1 μM of insulin]. After treating the cells for 8 days, cells were removed from the dish, counted with a hemocytometer and plated onto gelatinized 6-well culture plates at 10^4/cm^2. Cells with minute lipid droplets (adipocytes) appeared in two days. The number of the adipocytes and the size of droplets increased over time and reached a plateau at day 10.
ATRA treated cultures and vehicle treated control cultures underwent the same differentiation process as described in the Methods. […] Total RNA was extracted, and reverse-transcribed. The relative mass of specific RNA was calculated by the comparative cycle of threshold detection method according to the manufacturer's instruction. Two independent experiments were performed using different RNA preparations from the cultures; each run of PCR was conducted in triplicate. The expression of adipocyte markers was increased while some of the osteoblast markers were decreased.

[2] = system: embryoid body cultures from E14Tg2A cells; assay: Osteoblast differentiation, real time RT-PCR of osteoblast marker mRNA; conditions: day 31 cultures
Experimental: Two days afterwards, the droplets containing EBs were collected by adding medium to the cover and equally distributed onto 2 gelatinized (precoated with 0.1% gelatin) 100 mm petri dishes. Without treating with ATRA, the attached EBs were incubated in the induction medium containing 10^−7 M insulin and 2×10^−9 M T3 for 5 days.
After that, 0.3 mM of ascorbic acid phosphate (magnesium salt, Waco Chemicals, Dallas, Tex.) and 10 mM of β-glycerophosphate (Sigma-Aldrich Chemicals, St. Louis, Mo.) were added to the induction medium for an additional 9 days. At day 14, cultures were trypsinized to remove the cells and plated on to gelatin-coated 6-well culture plates at a density of 10^4 cells/cm^2. Three days after, at day 17, DEX at 10^−8 M was added to some of the wells to further induce osteoblast differentiation. Medium was replaced every 2 days throughout the culture period.
The cultures were terminated 2 weeks after at day 31 and stained for alkaline phosphatase (ALP) activity using a kit from Sigma following manufacturer's procedure (procedure No. 85). In this procedure, cells containing ALP activity, an osteoblast maker, appear in blue color. […]

[3] = system: fully differentiated and induced cells (adipocytes from MESC); assay: Hormone induced lipolysis (glycerol release into medium); conditions: 4 hr in glucose-free DMEM; isoproterenol increasing concentrations; dibutyryl-cAMP 10^-3 M; forskolin 4×10^-5 M
Experimental: FIG. 4. Hormone induced lipolysis. Fully differentiated and induced cells were treated with increasing concentrations of isoproterenol in glucose-free DMEM containing 30 mg/ml of fatty acid free albumin and adenosine deaminase (1 U/ml) for 4 hr. The control samples were incubated with 10^−5 M N-(2-phenylisopropyl)-adenosine to replace the endogenous adenosine. The amount of glycerol in the medium was measured using a calorimetric kit. Differentiated and induced cells incubated with isoproterenol in 35 mm wells. B. Differentiated cells with or without induction cultures were incubated with 10^−3 M dibutyryl-cAMP or 4×10^−5 M forskolin in 60 mm diameter culture plates.

## CC1=C(/C=C/C(C)=C/C=C/C(C)=C/C(=O)O)C(C)(C)CCC1 [ATRA, all-trans retinoic acid]
MESC
  cell number (Alamar blue fluorescence): significant lowering of the cell number was only seen at day 3
[1]
  formation of adipocytes at end of culture: formed numerous fully differentiated adipocytes
Differentiated MESC; adipocyte marker
  ALBP expression, Fold Change (ATRA/Control): +53.2 ± 0.09 fold
  HSL expression, Fold Change (ATRA/Control): +2.39 ± 0.17 fold
  PPAR-γ expression, Fold Change (ATRA/Control): +1.72 ± 0.42 fold
Differentiated MESC; osteoblast marker
  ALP expression, Fold Change (ATRA/Control): −2.54 ± 0.03 fold
  Collagen type 1α expression, Fold Change (ATRA/Control): +6.27 ± 0.26 fold
  Osteocalcin expression, Fold Change (ATRA/Control): −5.28 ± 0.05 fold
  Osteonectin expression, Fold Change (ATRA/Control): +2.02 ± 0.25 fold

## C[C@@H]1C[C@H]2[C@@H]3CCC4=CC(=O)C=C[C@]4(C)[C@@]3(F)[C@@H](O)C[C@]2(C)[C@@]1(O)C(=O)CO [DEX, dexamethasone]
[2]
  increase in expression of ALP mRNA: ~2 fold
  increase in expression of osteocalcin mRNA: 8 fold

## CCCC(=O)Nc1ncnc2c1ncn2[C@@H]1O[C@@H]2COP(=O)(O)O[C@H]2[C@H]1OC(=O)CCC [dibutyryl-cAMP]
[3]
  glycerol release (lipolysis): dose-dependent increase of glycerol release

## CC(C)NCC(O)c1ccc(O)c(O)c1 (stereo not shown) [isoproterenol]
[3]
  glycerol release (lipolysis): dose-dependent increase of glycerol release
